Values of other authors as cited in publication PMC12689647, “Evaluation of bromadiolone combined with ciprofloxacin, vitamin D, aspirin, and cinnamon as an apoptosis-mediated rodenticide strategy” (Scientific Reports, 2025).

Assays:
CYP1A = conditions: co-administration, many animal species; cited from earlier work
Albino rats = conditions: repeated doses (1 g/kg); cited from earlier work
G361 HMM cells = conditions: cited from earlier work

O=C(O)c1cn(C2CC2)c2cc(N3CCNCC3)c(F)cc2c1=O [Ciprofloxacin]
effect on CYP1A activity in hepatic microsomes (CYP1A): inhibits CYP1A activity

CC(=O)Oc1ccccc1C(=O)O [acetylsalicylic acid, Acetylsalicylic acid]
toxic effects of repeated doses (Albino rats): varying degrees of gastroenteritis, hepatitis, nephritis, pulmonary edema

O=c1ccc2cc(O)c(O)cc2o1 [esculetin]
effect on apoptotic signaling molecules (G361 HMM cells): activated apoptotic signaling molecules such as caspase-3 and PARP
